Counter-ions that a name gives are not always drawn.
What was measured:
PvPMV = PvPMV (Plasmodium vivax, UniProt A5K302); assay: PEXEL cleavage assay with immunopurified PvPMVHA and fluorogenic KAHRP PEXEL peptide; type: biochemical
Method: To investigate PvPMVHA activity, we affinity purified it, as well as the PfPMVHA control, using anti-HA agarose, as previously described [13],[18].
PMV-agarose was prepared by adding α-HA-agarose (Sapphire Bioscience) to parasite lysates, prepared by sonication in 1% Triton X-100/PBS, for 1 h before extensive washing in same [12],[13]. […] Samples were excited at 340 nm and fluorescence emission measured at 492 nm using an Envision fluorescence plate reader (Perkin-Elmer) heated to 37°C for 150 min. Samples were shaken between measurements.

[1] = tested on: PfEMP1 surface expression, CS2-GFP parasites; assay: PfEMP1 (VAR2CSA) surface display on infected erythrocytes by flow cytometry with PAM1.4; type: cell-based, Plasmodium falciparum; settings: 15 µM 23 h or 50>15 µM
Method: As 916 treatment has adverse affects on parasites after 24 h, a sublethal dosing regime was developed (see Figure S7) to maximize the inhibitor effect while ensuring parasites remained viable 24 h postinvasion when surface-exposed PfEMP1 was measured. Treatment with >15 µM for 23 h or with 50 µM for >12 h postinvasion prior to decreasing to 15 µM adversely affected parasite growth and was avoided.
To measure PfEMP1 display, highly synchronous ring-stage CS2-GFP parasites preferentially expressing VAR2CSA (see Plasmids, Parasites, and Antibody Production) were obtained by incubation of erythrocytes with viable merozoites for 15 min [47], and parasites were treated with 916, 025, or DMSO using the dosage regime above. […] Labeled cells were washed with 0.1% casein/PBS and analyzed on a FACSCalibur cytometer (Becton-Dickinson, USA). Fluorescence in channel FL1 was used to measure parasite-infected erythrocytes (GFP), and fluorescence in channel FL4 was used to measure bound PAM1.4 IgG antibodies (Alexa 633) for each sample. The geometric mean fluorescence of uninfected erythrocytes (treated with secondary and tertiary but not primary antibodies) was deducted from the geometric mean fluorescence of infected erythrocytes using >100,000 cells per condition. […]

[2] = tested on: cytoadherence of infected erythrocytes to CSA; assay: Static adhesion of infected erythrocytes to chondroitin sulfate A (CSA); type: cell-based, Plasmodium falciparum; settings: static conditions
Method: Adhesion assays were performed as described previously,[33]. Briefly, CSA (Sigma) was spotted at 50 µg/ml in triplicate into petri dishes, incubated overnight at 4°C, and blocked in 1% casein/PBS for 2 h. Inhibitor-treated erythrocytes were added to CSA-coated dishes and incubated for 45 min at 37°C. Dishes were washed four times with 5 ml warm RPMI-HEPES, fixed in 2% paraformaldehyde for 2 h, stained with 10% Giemsa for 15 min, and the number of adherent erythrocytes per mm^2 quantified by light microscopy counts. Assays were performed in triplicate.

HEpG2 cells = assay: Toxicity against human HEpG2 cells; type: cell-based; settings: toxicity against human cell line
beta-secretase (BACE-1) = beta-secretase (BACE-1) (Homo sapiens, UniProt P56817); assay: Off-target activity against human aspartyl protease BACE-1; type: biochemical
[3] = tested on: P. falciparum NF54 expressing PMVHA-glmS; assay: Dose-response growth assay of parasites expressing PMVHA-glmS or PMVHA-M9 with or without GlcN; type: cell-based, Plasmodium falciparum
Method: Parasites expressing PMVHA-glmS were next assessed for toxicity to 916.
(§1) In the case of dose-response curves, medium was kept for the entire experiment; in the case of curves in Figure 4B,C, medium was replaced with inhibitor-free medium at 48 h postinfection. Parasitaemia was always determined at 72 h by flow cytometry. To knock down PMV, GlcN (Sigma) was added to trophozoites and drug curves initiated by adding compound at subsequent rings (24 h) for 24–72 h.

[4] = tested on: P. falciparum overexpressing PvPMVHA; assay: Dose-response growth assay of parasites overexpressing PvPMVHA; type: cell-based, Plasmodium falciparum
Method: We next investigated the possible effects of PMV overexpression on parasite sensitivity to 916. […] To control for the carriage of episomes and selection on WR99210, sensitivity to 916 was compared between parasites overexpressing a similar construct on episomes on WR99210 selection (encoding miniVarHA; see Figure 1F).
as §1

[5] = tested on: EXP2 secretion in P. falciparum–infected erythrocytes; assay: EXP2 secretion to the parasitophorous vacuole membrane; type: cell-based, Plasmodium falciparum; settings: 20 or 50 µM, 13 h
Method: (§2) For quantification of events in cells infected with parasites expressing Hyp8-GFP, highly synchronous ring-stage parasites engineered to express Hyp8-GFP from the CRT promoter were obtained by incubation of erythrocytes with viable merozoites for 15 min [47] and treated with 20 or 50 µM 916 30 min postinvasion for 13 h (until Hyp8-GFP expression from the CRT promoter had occurred for 1 h). Smears were fixed in 90∶10 acetone∶methanol, labeled with anti-GFP and anti-EXP2 antibodies, and Z-stacks captured on a Deltavision Elite microscope using a 100× objective. Over 40 Z-stacks per condition were imaged using the same exposure settings to allow quantitative analysis between groups.
The EXP2 signal was measured by masking the infected cell using a watershed transform on the summed and filtered red signal, seeded by the DAPI-positive parasite.

Cathepsin D = Cathepsin D (Homo sapiens, UniProt P07339); assay: Off-target activity against human aspartyl protease Cathepsin D; type: biochemical; settings: read-out: IC50 CathD
[6] = tested on: Hyp8-GFP export in P. falciparum–infected erythrocytes; assay: Quantification of Hyp8-GFP export and Maurer's clefts by immunofluorescence microscopy; type: cell-based, Plasmodium falciparum
Method: as §2
A parasite mask was generated by combining the signals from the maximum intensity projections of the nuclear (DAPI) and parasitophorous vacuole membrane (EXP2) images and setting a manual threshold. A whole infected erythrocyte mask was produced by manually tracing the cell boundary using the DIC image. Average GFP intensity measurements were determined on masked summed intensity projections of the GFP images using MetaMorph Image Analysis suite (Molecular Devices, USA). Ratios of the average intensity measurements of GFP inside the parasite (inside EXP2) versus exported to the erythrocyte (outside EXP2) were determined.
Clefts were counted using ImageJ's “Find Maxima” function to detect local maxima in the green signal within the masked cell region.

Sequence of PvPMV (A5K302 35-536): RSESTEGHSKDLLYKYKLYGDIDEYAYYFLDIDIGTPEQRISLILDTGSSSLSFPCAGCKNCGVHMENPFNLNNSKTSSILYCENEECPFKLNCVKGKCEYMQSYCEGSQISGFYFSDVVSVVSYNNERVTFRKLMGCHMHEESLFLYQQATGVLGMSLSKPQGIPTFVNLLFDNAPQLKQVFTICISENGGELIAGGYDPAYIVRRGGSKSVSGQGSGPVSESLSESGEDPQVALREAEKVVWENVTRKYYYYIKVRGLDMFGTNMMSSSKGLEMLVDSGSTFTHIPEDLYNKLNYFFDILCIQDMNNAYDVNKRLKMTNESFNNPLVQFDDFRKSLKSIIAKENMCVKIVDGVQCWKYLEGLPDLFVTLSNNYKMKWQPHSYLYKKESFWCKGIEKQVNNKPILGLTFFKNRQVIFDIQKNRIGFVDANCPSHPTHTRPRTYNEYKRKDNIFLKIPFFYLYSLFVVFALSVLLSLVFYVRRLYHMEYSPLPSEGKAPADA
Sequence of Cathepsin D (P07339 65-412): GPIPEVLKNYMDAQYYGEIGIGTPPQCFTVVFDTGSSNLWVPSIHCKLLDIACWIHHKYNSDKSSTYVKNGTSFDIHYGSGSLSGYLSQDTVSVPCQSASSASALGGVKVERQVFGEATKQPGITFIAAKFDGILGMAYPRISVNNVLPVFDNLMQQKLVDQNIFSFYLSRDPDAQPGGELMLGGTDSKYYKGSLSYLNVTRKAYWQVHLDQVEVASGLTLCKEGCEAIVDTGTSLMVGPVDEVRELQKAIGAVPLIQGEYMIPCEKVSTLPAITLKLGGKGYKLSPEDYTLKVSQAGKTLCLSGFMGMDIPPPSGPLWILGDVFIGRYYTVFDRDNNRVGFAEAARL
Sequence of beta-secretase (BACE-1) (P56817 46-501): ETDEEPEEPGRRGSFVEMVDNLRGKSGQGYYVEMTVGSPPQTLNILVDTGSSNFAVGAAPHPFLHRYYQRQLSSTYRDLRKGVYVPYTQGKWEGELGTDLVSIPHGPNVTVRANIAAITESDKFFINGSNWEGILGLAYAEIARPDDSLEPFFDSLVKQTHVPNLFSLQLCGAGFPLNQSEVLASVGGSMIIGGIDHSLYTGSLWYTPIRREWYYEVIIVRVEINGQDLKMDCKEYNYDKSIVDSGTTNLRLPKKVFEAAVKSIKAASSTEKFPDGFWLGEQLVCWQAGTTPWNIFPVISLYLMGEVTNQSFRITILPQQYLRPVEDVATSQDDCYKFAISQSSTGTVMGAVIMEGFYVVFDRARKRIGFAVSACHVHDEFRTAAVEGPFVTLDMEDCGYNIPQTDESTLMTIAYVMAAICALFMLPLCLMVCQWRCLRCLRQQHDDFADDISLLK

Structure (SMILES) | Activity against PvPMVHA, in words (PvPMV) | IC50 (PvPMV) | Effect on PfEMP1 surface expression, in words [1] | Effect on adhesion to CSA, in words [2] | IC50 (HEpG2 cells) | IC50 (beta-secretase (BACE-1)) | Decrease in EC50 in presence of GlcN, PMVHA-M9 control ([3]; PMVHA-M9 (inactive glmS), with versus without GlcN) | Decrease in EC50 following PMV knockdown ([3]; PMVHA-glmS, 6 mM GlcN versus no GlcN, 72 h) | Increase in EC50 with PvPMVHA overexpression versus miniVarHA control ([4]; 5 nM WR99210 selection) | Increase in EC50 with PvPMVHA overexpression versus wild-type 3D7 ([4]; wild-type 3D7 without WR99210 selection) | Decrease of PfEMP1 surface expression ([1]; 24 h postinvasion) | Reduction of adhesion to CSA ([2]; compared to DMSO) | EXP2 signal at the parasitophorous vacuole membrane, in words [5] | IC50 (Cathepsin D) | Nonexported Hyp8-GFP signal inside EXP2, in words ([6]; 20 or 50 µM, 13 h) | Hyp8-GFP in Maurer's clefts (exported), in words ([6]; 20 or 50 µM, 13 h from 30 min postinvasion) | Reduction of mean number of GFP-positive Maurer's clefts ([6]; compared to DMSO)
CC[C@H](C)[C@H](NC(=O)[C@@H](NC(=O)[C@H](CCCNC(=N)N)NS(=O)(=O)Cc1ccccc1)C(C)C)[C@@H](O)CC(=O)NCCc1ccccc1 [compound 025, PhCH2SO2Arg-Val-AHMHpA-NH(CH2)2Ph . TFA] | weak activity | 1.77 µM | no effect | no effect | > 100 µM | – | – | – | – | – | – | – | – | – | – | – | –
CC(C)C[C@H](NC(=O)[C@@H](NC(=O)[C@H](CCCNC(=N)N)NS(=O)(=O)Cc1ccccc1)C(C)C)[C@@H](O)CC(=O)NCCc1ccccc1 [compound 916, PhCH2SO2-Arg(NH2)-Val-Sta-NH(CH2)2Ph .TFA] | – | – | – | – | > 100 µM | > 100 µM | 1.4 fold | 3.3 fold | 1.9 fold | 1.4 fold | up to 55% | ~50% | no statistical difference | 25 µM | small but significant increase in nonexported GFP signal | dose-dependent decrease of Hyp8-GFP in MCs | up to 39%

Reference: publication PMC4077696 (PLoS Biology, 2014)
